# Test results published in US20250099474A1 (priority 2022, published 2025).
# Assays:
# [1] = test system: SARS-CoV-2; assay: Phase 2/3 study, Phase 2b Part: score of 12 COVID-19 symptoms per unit time; assay type: in vivo, human; conditions: for Change from baseline up to 120 hours in total score of 12 COVID-19 symptoms per unit time: Adjusted mean value by covariance analysis (standard error) / Change from baseline up to 120 hours in total score of 12 COVID-19 symptoms per unit time: Difference of adjusted mean value from that of placebo group (standard error) / Change from baseline up to 120 hours in total score of 12 COVID-19 symptoms per unit time: Maximum value / Change from baseline up to 120 hours in total score of 12 COVID-19 symptoms per unit time: Mean value / Change from baseline up to 120 hours in total score of 12 COVID-19 symptoms per unit time: Median value / Change from baseline up to 120 hours in total score of 12 COVID-19 symptoms per unit time: Minimum value: mild/moderate patients, ITT1 population
# Procedure: The primary endpoints of Phase 2b Part were the time-weighted average change in the total score of 12 COVID-19 symptoms per unit time from the start of the first administration (Day 1) to 120 hours (Day 6), and the change from baseline in SARS-CoV-2 virus titer on Day 4, in mild/moderate SARS-CoV-2-infected patients, and the clinical improvement and the antiviral effect of the active drug were confirmed.
# The administration of the active drug is repeated oral administration once a day for 5 days. The 375/125 mg group received 375 mg on Day 1 as a loading dose and 125 mg on Days 2 to 5 as a maintenance dose. The 750/250 mg group received 750 mg on Day 1 as a loading dose and 250 mg on Days 2 to 5 as a maintenance dose.
# The primary efficacy endpoints of Phase 2b Part for mild/moderate SARS-CoV-2-infected patients were the time-weighted average change in the total score of 12 COVID-19 symptoms per unit time from the start of the first administration (Day 1) to 120 hours (Day 6), and the change from baseline in SARS-CoV-2 virus titer on Day 4. The total score of 12 COVID-19 symptoms is the sum of the scores determined by evaluation in four grades (0: none, 1: mild, 2: moderate, 3: severe) in the subject daily records for each of the 12 COVID-19 symptoms (low energy and tiredness, muscle or body aches, headache, chills or shivering, feeling hot or feverish, stuffy and runny nose, sore throat, cough, shortness of breath (difficulty breathing), nausea, vomiting, diarrhea).
# Pairwise comparison was performed between each active drug dose group and the placebo group. […] Pairwise comparison was performed between each active drug dose group and the placebo group.
# The results of classifying the twelve COVID-19 symptoms shown in the above (2-a) into 5 types (acute symptoms, major clinical symptoms, respiratory symptoms, systemic symptoms, and gastrointestinal symptoms) and analyzing the same (ITT population) are shown in the following table. • Acute symptoms: sore throat, cough, feeling hot and feverish • Major clinical symptoms: stuffy and runny nose, sore throat, cough, chills or shivering, feeling hot or feverish • Respiratory symptoms: stuffy and runny nose, sore throat, cough, shortness of breath (difficulty breathing) • Systemic symptoms: low energy and tiredness, muscle or body aches, headache, chills or shivering, feeling hot or feverish • Gastrointestinal symptoms: nausea, vomiting, diarrhea
# [2] = Phase 2/3 study: frequency of adverse events; assay type: in vivo, human; conditions: for Adverse events leading to discontinuation of administration, causally related to the investigational new drug: recovering or recovered after discontinuation
# [3] = ITT population, 750/250 mg group
compound,measurement,setting,value
"Cn1cnc(Cn2c(=O)[nH]/c(=N\c3cc4cn(C)nc4cc3Cl)n(Cc3cc(F)c(F)cc3F)c2=O)n1 [(6E)-6-[(6-chloro-2-methyl-2H-indazol-5-yl)imino]-3-[(1-methyl-1H-1,2,4-triazol-3-yl)methyl]-1-[(2,4,5-trifluorophenyl)methyl]-1,3,5-triazinane-2,4-dione]","Change from baseline up to 120 hours in sub-total score per unit time, gastrointestinal symptoms: Maximum value",[1]; [3],0.50
same,"Change from baseline up to 120 hours in sub-total score per unit time, gastrointestinal symptoms: Mean value",[1]; [3],−1.13
same,"Change from baseline up to 120 hours in sub-total score per unit time, gastrointestinal symptoms: Median value",[1]; [3],−0.79
same,"Change from baseline up to 120 hours in sub-total score per unit time, gastrointestinal symptoms: Minimum value",[1]; [3],−5.78
same,"Change from baseline up to 120 hours in sub-total score per unit time, major clinical symptoms: Adjusted mean value by covariance analysis (standard error)",[1]; [3],−3.42 (0.14)
same,"Change from baseline up to 120 hours in sub-total score per unit time, major clinical symptoms: Difference of adjusted mean value from that of placebo group (standard error)",[1]; [3],−0.42 (0.17)
same,"Change from baseline up to 120 hours in sub-total score per unit time, major clinical symptoms: Maximum value",[1]; [3],0.39
same,"Change from baseline up to 120 hours in sub-total score per unit time, major clinical symptoms: Mean value",[1]; [3],−3.54
same,"Change from baseline up to 120 hours in sub-total score per unit time, major clinical symptoms: Median value",[1]; [3],−3.42
same,"Change from baseline up to 120 hours in sub-total score per unit time, major clinical symptoms: Minimum value",[1]; [3],−10.11
same,"Change from baseline up to 120 hours in sub-total score per unit time, respiratory symptoms: Adjusted mean value by covariance analysis (standard error)",[1]; [3],−2.16 (0.12)
same,"Change from baseline up to 120 hours in sub-total score per unit time, respiratory symptoms: Difference of adjusted mean value from that of placebo group (standard error)",[1]; [3],−0.44 (0.15)
same,"Change from baseline up to 120 hours in sub-total score per unit time, respiratory symptoms: Maximum value",[1]; [3],2.29
same,"Change from baseline up to 120 hours in sub-total score per unit time, respiratory symptoms: Mean value",[1]; [3],−2.33
same,"Change from baseline up to 120 hours in sub-total score per unit time, respiratory symptoms: Median value",[1]; [3],−2.30
same,"Change from baseline up to 120 hours in sub-total score per unit time, respiratory symptoms: Minimum value",[1]; [3],−6.34
same,"Change from baseline up to 120 hours in sub-total score per unit time, systemic symptoms: Adjusted mean value by covariance analysis (standard error)",[1]; [3],−3.16 (0.14)
same,"Change from baseline up to 120 hours in sub-total score per unit time, systemic symptoms: Difference of adjusted mean value from that of placebo group (standard error)",[1]; [3],0.30 (0.17)
same,"Change from baseline up to 120 hours in sub-total score per unit time, systemic symptoms: Maximum value",[1]; [3],2.71
same,"Change from baseline up to 120 hours in sub-total score per unit time, systemic symptoms: Mean value",[1]; [3],−3.19
same,"Change from baseline up to 120 hours in sub-total score per unit time, systemic symptoms: Median value",[1]; [3],−2.81
same,"Change from baseline up to 120 hours in sub-total score per unit time, systemic symptoms: Minimum value",[1]; [3],−9.66
same,Change from baseline up to 120 hours in total score of 12 COVID-19 symptoms per unit time: Adjusted mean value by covariance analysis (standard error),[1]; 375/125 mg group,−5.37 (0.24)
same,Change from baseline up to 120 hours in total score of 12 COVID-19 symptoms per unit time: Difference of adjusted mean value from that of placebo group (standard error),[1]; 375/125 mg group,−0.24 (0.30)
same,Change from baseline up to 120 hours in total score of 12 COVID-19 symptoms per unit time: Maximum value,[1]; 375/125 mg group,2.43
same,Change from baseline up to 120 hours in total score of 12 COVID-19 symptoms per unit time: Mean value,[1]; 375/125 mg group,−5.95
same,Change from baseline up to 120 hours in total score of 12 COVID-19 symptoms per unit time: Median value,[1]; 375/125 mg group,−5.40
same,Change from baseline up to 120 hours in total score of 12 COVID-19 symptoms per unit time: Minimum value,[1]; 375/125 mg group,−20.37
same,Change from baseline up to 120 hours in total score of 12 COVID-19 symptoms per unit time: Adjusted mean value by covariance analysis (standard error),[1]; 750/250 mg group,−5.17 (0.23)
same,Change from baseline up to 120 hours in total score of 12 COVID-19 symptoms per unit time: Difference of adjusted mean value from that of placebo group (standard error),[1]; 750/250 mg group,−0.04 (0.29)
same,Change from baseline up to 120 hours in total score of 12 COVID-19 symptoms per unit time: Maximum value,[1]; 750/250 mg group,2.47
same,Change from baseline up to 120 hours in total score of 12 COVID-19 symptoms per unit time: Mean value,[1]; 750/250 mg group,−5.42
same,Change from baseline up to 120 hours in total score of 12 COVID-19 symptoms per unit time: Median value,[1]; 750/250 mg group,−4.92
same,Change from baseline up to 120 hours in total score of 12 COVID-19 symptoms per unit time: Minimum value,[1]; 750/250 mg group,−18.16
same,Adverse events leading to deaths,[2]; Phase 2a Part,no adverse events leading to deaths
same,"Deaths, serious adverse events, adverse events leading to discontinuation of administration",[2]; Phase 2a Part,"no deaths, serious adverse events, or adverse events leading to discontinuation of administration"
same,Adverse events leading to the discontinuation of administration,"[2]; Phase 2a Part, 375/125 mg group, both causally related to the investigational new drug",Two adverse events leading to the discontinuation of administration were observed
same,serious adverse events,"[2]; Phase 2a Part, active drug group",not in the active drug group
same,Adverse events leading to deaths,[2]; Phase 3 Part,no adverse events leading to deaths
same,Serious adverse event,"[2]; Phase 3 Part, 375/125 mg group, no causal relationship with the investigational new drug",observed in one case
same,"Adverse events leading to discontinuation of administration, causally related to the investigational new drug","[2]; Phase 3 Part, 375/125 mg group",eczema and emesis
same,"Adverse events leading to discontinuation of administration, causally related to the investigational new drug","[2]; Phase 3 Part, 750/250 mg group",rash (2 cases)
